# Test system: IFNα-induced pSTAT5 (pY694) in CD3 positive cells of human whole blood
# Test: IFNα-Induced STAT Phosphorylation in Human Whole Blood
# Assay type: cell-based
# Conditions: Homo sapiens, 1 h compound incubation, 1000 U/mL recombinant human IFNα A/D for 15 min, pSTAT5 in CD3 positive population, read-out: Human WB IFNα-Induced Stat Phosph. (IC50)
# In short: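 Read-out is median fluorescence intensity of pSTAT5 (pY694) in the CD3-positive gate, by flow cytometry after fix/lyse and permeabilization. Before that, whole human blood anticoagulated with EDTA or ACD-A received compound for an hour and 1000 U/mL IFNα A/D for 15 min.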
row,SMILES,IC50 [nM]
1,[2H]C([2H])([2H])NC(=O)c1nnc(NC(=O)C2CC2)cc1Nc1cccc(-c2nc(CNS(C)(=O)=O)no2)c1OC [Example 146],210
2,[2H]C([2H])([2H])NC(=O)c1nnc(NC(=O)C2CC2)cc1Nc1cccc(-c2nc(CNC(=O)CN(C)C)no2)c1OC [Example 147],1720
3,[2H]C([2H])([2H])NC(=O)c1nnc(NC(=O)C2CC2)cc1Nc1cccc(-c2nc(CNC(=O)CC#N)no2)c1OC [Example 148],1820
4,[2H]C([2H])([2H])NC(=O)c1nnc(NC(=O)C2CC2)cc1Nc1cccc(-c2nc(C3(NC(=O)COC)CC3)no2)c1OC [Example 149],1950
5,[2H]C([2H])([2H])NC(=O)c1nnc(NC(=O)C2CC2)cc1Nc1cccc(-c2nc(C3(NC(=O)OC(C)(C)C)CC3)no2)c1OC [Example 150],> 10000
6,[2H]C([2H])([2H])NC(=O)c1nnc(NC(=O)C2CC2)cc1Nc1cccc(-c2nc(C3(NC(=O)CC#N)CC3)no2)c1OC [Example 151],1550
7,[2H]C([2H])([2H])NC(=O)c1nnc(NC(=O)C2CC2)cc1Nc1cccc(-c2nc(CNC(=O)COC)no2)c1OC [Example 152],1310
8,[2H]C([2H])([2H])NC(=O)c1nnc(NC(=O)C2CC2)cc1Nc1cccc(-c2nc(CNC(=O)CN(C)C(=O)OC(C)(C)C)no2)c1OC [Example 153],> 10000
9,[2H]C([2H])([2H])NC(=O)c1nnc(NC(=O)C2CC2)cc1Nc1cccc(-c2nc(CNC(=O)CNC)no2)c1OC [Example 154],1110
10,[2H]C([2H])([2H])NC(=O)c1nnc(NC(=O)C2CC2)cc1Nc1cccc(-c2nc(CNC(=O)CN)no2)c1OC [Example 155],780
11,[2H]C([2H])([2H])NC(=O)c1nnc(NC(=O)C2CC2)cc1Nc1cccc(-c2nc(C3(N)CC3)no2)c1OC [Example 156],630
12,[2H]C([2H])([2H])NC(=O)c1nnc(NC(=O)C2CC2)cc1Nc1cccc(-c2nc(CNC(=O)CNC(=O)OC(C)(C)C)no2)c1OC [Example 157],> 10000
13,[2H]C([2H])([2H])NC(=O)c1nnc(NC(=O)C2CC2)cc1Nc1cccc(-c2nc(CN3C[C@@H](C)O[C@@H](C)C3)no2)c1OC [Example 158],400
14,[2H]C([2H])([2H])NC(=O)c1nnc(NC(=O)C2CC2)cc1Nc1cccc(-c2nc(CNC(=O)CN3CCOCC3)no2)c1OC [Example 159],1080
15,[2H]C([2H])([2H])NC(=O)c1nnc(NC(=O)C2CC2)cc1Nc1cccc(-c2nc(CNC(=O)CN3CCN(C)CC3)no2)c1OC [Example 160],1790
16,[2H]C([2H])([2H])NC(=O)c1nnc(NC(=O)C2CC2)cc1Nc1cccc(-c2nc(CNC(=O)CN3CCN(C(=O)OC(C)(C)C)CC3)no2)c1OC [Example 161],9420
17,[2H]C([2H])([2H])NC(=O)c1nnc(NC(=O)C2CC2)cc1Nc1cccc(-c2nc(CNC(=O)CN3CCNCC3)no2)c1OC [Example 162],2730
18,[2H]C([2H])([2H])NC(=O)c1nnc(NC(=O)C2CC2)cc1Nc1cccc(-c2nc(CNC(=O)CN3CCN(S(C)(=O)=O)CC3)no2)c1OC [Example 163],1760
19,[2H]C([2H])([2H])NC(=O)c1nnc(NC(=O)C2CC2)cc1Nc1cccc(-c2nc(CN3CCS(=O)(=O)CC3)no2)c1OC [Example 164],200
20,[2H]C([2H])([2H])NC(=O)c1nnc(NC(=O)C2CC2)cc1Nc1cccc(-c2nc(C3(NC(C)=O)CC3)no2)c1OC [Example 165],530

row,SMILES,IC50 [nM]
1,[2H]C([2H])([2H])NC(=O)c1nnc(NC(=O)C2CC2)cc1Nc1cccc(-c2nc(CN(C)C(=O)OC(C)(C)C)no2)c1OC [Example 167],2420
2,[2H]C([2H])([2H])NC(=O)c1nnc(NC(=O)C2CC2)cc1Nc1cccc(-c2nc(CNC)no2)c1OC [Example 168],230
3,[2H]C([2H])([2H])NC(=O)c1nnc(NC(=O)C2CC2)cc1Nc1cccc(-c2nc(CN(C)S(C)(=O)=O)no2)c1OC [Example 169],110
4,[2H]C([2H])([2H])NC(=O)c1nnc(NC(=O)C2CC2)cc1Nc1cccc(-c2nc(CN(C)C(=O)COC)no2)c1OC [Example 170],570
5,[2H]C([2H])([2H])NC(=O)c1nnc(NC(=O)C2CC2)cc1Nc1cccc(-c2nc(CN(C)C(=O)CC#N)no2)c1OC [Example 171],690
6,[2H]C([2H])([2H])NC(=O)c1nnc(NC(=O)C2CC2)cc1Nc1cccc(-c2nc(CN(C)C(=O)CN(C)C)no2)c1OC [Example 172],1440
7,[2H]C([2H])([2H])NC(=O)c1nnc(NC(=O)C2CC2)cc1Nc1cccc(-c2nc(CN(C)C(C)=O)no2)c1OC [Example 173],300
8,[2H]C([2H])([2H])NC(=O)c1nnc(NC(=O)C2CC2)cc1Nc1cccc(-c2nc(CO)no2)c1OC [Example 174],560
9,[2H]C([2H])([2H])NC(=O)c1nnc(NC(=O)C2CC2)cc1Nc1cccc(-c2nc(CN(CCOC)CCOC)no2)c1OC [Example 175],660
10,[2H]C([2H])([2H])NC(=O)c1nnc(NC(=O)C2CC2)cc1Nc1cccc(-c2nc(CC(=O)NCCOC)no2)c1OC [Example 176],450
11,[2H]C([2H])([2H])NC(=O)c1nnc(NC(=O)C2CC2)cc1Nc1cccc(-c2nc(CC(=O)NCCO)no2)c1OC [Example 177],1030
12,[2H]C([2H])([2H])NC(=O)c1nnc(NC(=O)C2CC2)cc1Nc1cccc(-c2nc(CC(=O)NCC)no2)c1OC [Example 178],550
13,[2H]C([2H])([2H])NC(=O)c1nnc(NC(=O)C2CC2)cc1Nc1cccc(-c2nc(CC(=O)N3CCOCC3)no2)c1OC [Example 179],290
14,[2H]C([2H])([2H])NC(=O)c1nnc(NC(=O)C2CC2)cc1Nc1cccc(-c2nc(CN3CCN(C)CC3)no2)c1OC [Example 180],200
15,[2H]C([2H])([2H])NC(=O)c1nnc(NC(=O)C2CC2)cc1Nc1cccc(-c2nc([C@H](C)N)no2)c1OC [Example 181],630
16,[2H]C([2H])([2H])NC(=O)c1nnc(NC(=O)C2CC2)cc1Nc1cccc(-c2nc([C@H](C)NC(=O)OC)no2)c1OC [Example 182],2010
17,[2H]C([2H])([2H])NC(=O)c1nnc(NC(=O)C2CC2)cc1Nc1cccc(-c2nc([C@H](C)NC(C)=O)no2)c1OC [Example 183],1680
18,[2H]C([2H])([2H])NC(=O)c1nnc(NC(=O)C2CC2)cc1Nc1cccc(-c2nc([C@H](C)NS(C)(=O)=O)no2)c1OC [Example 184],130
19,[2H]C([2H])([2H])NC(=O)c1nnc(NC(=O)C2CC2)cc1Nc1cccc(-c2nc([C@@H](NC(=O)OC(C)(C)C)[C@@H](C)OC(C)(C)C)no2)c1OC [Example 185],> 10000
20,[2H]C([2H])([2H])NC(=O)c1nnc(NC(=O)C2CC2)cc1Nc1cccc(-c2nc(C(C)(C)O)no2)c1OC [Example 186],790

row,SMILES,IC50 [nM]
1,[2H]C([2H])([2H])NC(=O)c1nnc(NC(=O)C2CC2)cc1Nc1cccc(-c2nc([C@@H](NC(C)=O)[C@@H](C)O)no2)c1OC [Example 187],1130
2,[2H]C([2H])([2H])NC(=O)c1nnc(NC(=O)C2CC2)cc1Nc1cccc(-c2nc([C@@H](NC(=O)OC)[C@@H](C)O)no2)c1OC [Example 188],1270
3,[2H]C([2H])([2H])NC(=O)c1nnc(NC(=O)C2CC2)cc1Nc1cccc(-c2nc([C@@H](N)[C@@H](C)O)no2)c1OC [Example 189],100
4,[2H]C([2H])([2H])NC(=O)c1nnc(NC(=O)C2CC2)cc1Nc1cccc(-c2nc([C@@H](NC(=O)CC)[C@@H](C)O)no2)c1OC [Example 190],2360
5,[2H]C([2H])([2H])NC(=O)c1nnc(NC(=O)C2CC2)cc1Nc1cccc(-c2nc([C@@H](C)N)no2)c1OC [Example 191],410
6,[2H]C([2H])([2H])NC(=O)c1nnc(NC(=O)C2CC2)cc1Nc1cccc(-c2nc([C@@H](C)NC(=O)OC)no2)c1OC [Example 192],870
7,[2H]C([2H])([2H])NC(=O)c1nnc(NC(=O)C2CC2)cc1Nc1cccc(-c2nc([C@@H](C)NC(=O)OC(C)(C)C)no2)c1OC [Example 193],7360
8,[2H]C([2H])([2H])NC(=O)c1nnc(NC(=O)C2CC2)cc1Nc1cccc(-c2nc([C@@H](C)NC(C)=O)no2)c1OC [Example 194],160
9,[2H]C([2H])([2H])NC(=O)c1nnc(NC(=O)C2CC2)cc1Nc1cccc(-c2nc([C@@H](C)NS(C)(=O)=O)no2)c1OC [Example 195],720
10,[2H]C([2H])([2H])NC(=O)c1nnc(NC(=O)C2CC2)cc1Nc1cccc(-c2nc([C@@H](C)NC(=O)CC)no2)c1OC [Example 196],1180
11,[2H]C([2H])([2H])NC(=O)c1nnc(NC(=O)C2CC2)cc1Nc1cccc(-c2nc([C@H](COC(C)(C)C)NC(=O)OC(C)(C)C)no2)c1OC [Example 197],6200
12,[2H]C([2H])([2H])NC(=O)c1nnc(NC(=O)C2CC2)cc1Nc1cccc(-c2nc([C@H](CO)NC(=O)CC)no2)c1OC [Example 198],1650
13,[2H]C([2H])([2H])NC(=O)c1nnc(NC(=O)C2CC2)cc1Nc1cccc(-c2nc([C@H](CO)NC(C)=O)no2)c1OC [Example 199],1080
14,[2H]C([2H])([2H])NC(=O)c1nnc(NC(=O)C2CC2)cc1Nc1cccc(-c2nc([C@H](COC(C)=O)NC(C)=O)no2)c1OC [Example 200],760
15,[2H]C([2H])([2H])NC(=O)c1nnc(NC(=O)C2CC2)cc1Nc1cccc(-c2nc([C@@H](N)CO)no2)c1OC [Example 201],290
16,[2H]C([2H])([2H])NC(=O)c1nnc(NC(=O)C2CC2)cc1Nc1cccc(-c2nc([C@H](CO)NC(=O)COC)no2)c1OC [Example 202],1800
17,[2H]C([2H])([2H])NC(=O)c1nnc(NC(=O)C2CC2)cc1Nc1cccc(-c2nc([C@H](NC(C)=O)[C@H](C)O)no2)c1OC [Example 203],460
18,[2H]C([2H])([2H])NC(=O)c1nnc(NC(=O)C2CC2)cc1Nc1cccc(-c2nc([C@H](N)[C@H](C)O)no2)c1OC [Example 204],140
